Laboratory results: patent US20090012085A1, “DOSAGE FORMS AND METHODS OF TREATMENT USING A TYROSINE KINASE INHIBITOR” (priority 2005, published 2009)
Read-outs that look alike come from different tables or passages of the source.

Test: Phase I dose-escalating study, plasma pharmacokinetics in patients with solid tumor
Assay type: in vivo, human
Conditions: for concentration at 6 h / concentration at 8 h / concentration at 10 h / concentration at 0 h / concentration at 1 h / concentration at 2 h / concentration at 3 h / concentration at 4 h / concentration at 20 h / concentration at 24 h / concentration at 48 h / concentration at 72 h / concentration at 96 h / concentration at 144 h / AUC(0-t) / Cmax / Tmax / half-life: human, plasma; for concentration at 6 h: nominal time 6 h; for concentration at 8 h: nominal time 8 h; for concentration at 10 h: nominal time 10 h; for concentration at 0 h: nominal time 0 h; for concentration at 1 h: nominal time 1 h; for concentration at 2 h: nominal time 2 h; for concentration at 3 h: nominal time 3 h; for concentration at 4 h: nominal time 4 h; for concentration at 20 h: nominal time 20 h; for concentration at 48 h: nominal time 48 h; for concentration at 72 h: nominal time 72 h; for concentration at 96 h: nominal time 96 h; for concentration at 144 h: nominal time 144 h; for AUC(0-t): read-out: AUC(0-24), mean (% CV); for Cmax: read-out: Cmax, mean (% CV); for Tmax: read-out: tmax, mean (% CV); for half-life: read-out: t½, mean (% CV) (converted)
Protocol: Cmax values, or maximum total plasma concentrations, of a compound of formula 1 can be measured according to techniques well known to those skilled in the art. For example, after a compound of formula 1 has been administered to a mammal, blood samples can be taken at fixed time points over a period of time (e.g. 24 hours) and the serum or plasma concentration of compound of formula 1 can be measured using standard analytical techniques known in the art. In vivo determinations Cmax can then be made by plotting the serum or plasma concentration of compound of formula 1 along the ordinate (y-axis) against time along the abscissa (x-axis).
The maleate salt of compound 1 was administered to human patients with solid tumor malignancies not amenable to conventional therapies in a Phase I dose-escalating multicenter study. The types of tumor malignancies included colorectal carcinoma, renal cell carcinoma, esophageal carcinoma, thymus carcinoma, mastocytosis, lung cancer and multiple endocrine neoplasia type II. Patients were treated in cohorts of 6 with escalating QD (once per day) doses of the maleate salt of compound 1 under fasting conditions. Each study cycle of 5 weeks consisted of 4 weeks of treatment followed by 1 week of rest (4/1 schedule), or continuous dosing without any rest period.
Full pharmacokinetic profiles were collected on Cycle 1 Day 1 (C1D1), Cycle 1 Day 28 (C1D28), and Cycle 2 Day 28 (C2D28). Preliminary pharmacokinetic parameters for the first 44 patients, i.e. the first 7 dosing groups, were estimated using nominal collection times and quality-controlled, non-quality assured bioanalytical data. The dosage amounts in Table 1A and Table 1B are free base equivalent amounts.

[1] = 25 mg QD, 25 mg QD 4/1 (n = 6), read-out: Mean plasma concentration following the last dose on cycle 1 day 28
[2] = 25 mg, 25 mg QD 4/1 (n = 6), read-out: Mean plasma concentration following the last dose on cycle 1 day 28
[3] = 25 mg, 25 mg QD (4/1), C1D1 (n = 6)
[4] = 25 mg, 25 mg QD (4/1), C1D28 (n = 6)
[5] = 25 mg, 25 mg QD (4/1), C2D28 (n = 5)
[6] = 50 mg QD, 50 mg QD 4/1 (n = 5), read-out: Mean plasma concentration following the last dose on cycle 1 day 28
[7] = 50 mg, 50 mg QD 4/1 (n = 5), read-out: Mean plasma concentration following the last dose on cycle 1 day 28
[8] = 50 mg, 50 mg QD (4/1), C1D1 (n = 6)
[9] = 50 mg, 50 mg QD (4/1), C1D28 (n = 5)
[10] = 50 mg, 50 mg QD (4/1), C2D28 (n = 3)
[11] = 100 mg QD, 100 mg QD 4/1 (n = 6), read-out: Mean plasma concentration following the last dose on cycle 1 day 28
[12] = 100 mg QD, 100 mg QD Continuous (n = 4), read-out: Mean plasma concentration following the last dose on cycle 1 day 28
[13] = 100 mg, 100 mg QD 4/1 (n = 6), read-out: Mean plasma concentration following the last dose on cycle 1 day 28
[14] = 100 mg, 100 mg QD (4/1), C1D1 (n = 7)
[15] = 100 mg, 100 mg QD (4/1), C1D28 (n = 6)
[16] = 100 mg, 100 mg QD (4/1), C2D28 (n = 4)
[17] = 100 mg, 100 mg QD (continuous), C1D1 (n = 6)
[18] = 100 mg, 100 mg QD (continuous), C1D28 (n = 6)
[19] = 100 mg, 100 mg QD (continuous), C2D28 (n = 4)
[20] = 100 mg, 100 mg QD Continuous (n = 4), read-out: Mean plasma concentration following the last dose on cycle 1 day 28

SMILES: Cc1[nH]c(/C=C2\C(=O)Nc3ccc(F)cc32)c(C)c1C(=O)NC[C@H](O)CN1CCOCC1 [compound 1, 5-[(Z)-(5-fluoro-2-oxo-1,2-dihydro-3H-indol-3-ylidene)methyl]-N-[(2S)-2-hydroxy-3-morpholin-4-ylpropyl]-2,4-dimethyl-1H-pyrrole-3-carboxamide]
- drug accumulation in plasma from cycle 1 to cycle 2 (100 mg QD continuous, Cmax and AUC0-24 of C1D28 vs C2D28): no drug accumulation
- time of the longer elimination phase after dosing (4/1 schedule, after the last dose on Day 28): about 72 hours
- change in the overall plasma elimination profile (across the 25- to 250-mg groups): no change
- time of absorption after dosing (administered in the fasted state): ≤ 6 h
- dose linearity of pharmacokinetics (first 44 patients, 25 to 250 mg): generally dose-linear pharmacokinetics
- concentration at 6 h [1]: 50.3 ng/mL
- concentration at 8 h [1]: 41.3 ng/mL
- concentration at 10 h [1]: 36.8 ng/mL
- concentration at 0 h [2]: 22.2 ng/mL
- concentration at 1 h [2]: 50.1 ng/mL
- concentration at 2 h [2]: 46.7 ng/mL
- concentration at 3 h [2]: 47 ng/mL
- concentration at 4 h [2]: 58.3 ng/mL
- concentration at 20 h [2]: 19.5 ng/mL
- concentration at 24 h (25 mg, 25 mg QD 4/1 (n = 6), nominal time 24 h, read-out: Mean plasma concentration following the last dose on cycle 1 day 28): 21.1 ng/mL
- concentration at 48 h [2]: 6.24 ng/mL
- concentration at 72 h [2]: 2.61 ng/mL
- concentration at 96 h [2]: 1.58 ng/mL
- concentration at 144 h [2]: 0.63 ng/mL
- AUC(0-t) [3]: 547 ng·h/mL
- concentration at 24 h (25 mg, 25 mg QD (4/1), C1D1 (n = 6), read-out: C(trough, 24 h), mean (% CV)): 13.8 ng/mL
- Cmax [3]: 55.1 ng/mL
- Tmax [3]: 2.8 h
- half-life [3]: 11.9 h
- AUC(0-t) [4]: 809 ng·h/mL
- concentration at 24 h (25 mg, 25 mg QD (4/1), C1D28 (n = 6), read-out: C(trough, 24 h), mean (% CV)): 21.1 ng/mL
- Cmax [4]: 72.9 ng/mL
- Tmax [4]: 2.7 h
- half-life [4]: 24.8 h
- Cmax [5]: 61.8 ng/mL
- Tmax [5]: 3.2 h
- half-life [5]: 17.7 h
- concentration at 3 h [6]: 85.6 ng/mL
- concentration at 6 h [6]: 71.3 ng/mL
- concentration at 8 h [6]: 68.6 ng/mL
- concentration at 10 h [6]: 59.4 ng/mL
- concentration at 0 h [7]: 37.2 ng/mL
- concentration at 1 h [7]: 72.3 ng/mL
- concentration at 2 h [7]: 84.5 ng/mL
- concentration at 4 h [7]: 81.1 ng/mL
- concentration at 20 h [7]: 30.5 ng/mL
- concentration at 24 h (50 mg, 50 mg QD 4/1 (n = 5), nominal time 24 h, read-out: Mean plasma concentration following the last dose on cycle 1 day 28): 24.3 ng/mL
- concentration at 48 h [7]: 25.4 ng/mL
- concentration at 72 h [7]: 7.89 ng/mL
- concentration at 96 h [7]: 17 ng/mL
- concentration at 144 h [7]: 3.27 ng/mL
- AUC(0-t) [8]: 888 ng·h/mL
- concentration at 24 h (50 mg, 50 mg QD (4/1), C1D1 (n = 6), read-out: C(trough, 24 h), mean (% CV)): 20.8 ng/mL
- Cmax [8]: 84.6 ng/mL
- Tmax [8]: 2.8 h
- half-life [8]: 10.8 h
- AUC(0-t) [9]: 1350 ng·h/mL
- concentration at 24 h (50 mg, 50 mg QD (4/1), C1D28 (n = 5), read-out: C(trough, 24 h), mean (% CV)): 50.8 ng/mL
- Cmax [9]: 126 ng/mL
- Tmax [9]: 6.6 h
- half-life [9]: 24 h
- AUC(0-t) [10]: 1790 ng·h/mL
- concentration at 24 h (50 mg, 50 mg QD (4/1), C2D28 (n = 3), read-out: C(trough, 24 h), mean (% CV)): 44.2 ng/mL
- Cmax [10]: 173 ng/mL
- Tmax [10]: 3.3 h
- half-life [10]: 18.9 h
- concentration at 3 h [11]: 337 ng/mL
- concentration at 4 h [11]: 344 ng/mL
- concentration at 6 h [11]: 312 ng/mL
- concentration at 8 h [11]: 261 ng/mL
- concentration at 10 h [11]: 208 ng/mL
- concentration at 3 h [12]: 460 ng/mL
- concentration at 4 h [12]: 560 ng/mL
- concentration at 6 h [12]: 707 ng/mL
- concentration at 8 h [12]: 395 ng/mL
- concentration at 10 h [12]: 566 ng/mL
- concentration at 0 h [13]: 121 ng/mL
- concentration at 1 h [13]: 218 ng/mL
- concentration at 2 h [13]: 326 ng/mL
- concentration at 20 h [13]: 311 ng/mL
- concentration at 24 h (100 mg, 100 mg QD 4/1 (n = 6), nominal time 24 h, read-out: Mean plasma concentration following the last dose on cycle 1 day 28): 111 ng/mL
- concentration at 48 h [13]: 60.8 ng/mL
- concentration at 72 h [13]: 16.1 ng/mL
- concentration at 96 h [13]: 9.96 ng/mL
- concentration at 144 h [13]: 2.94 ng/mL
- AUC(0-t) [14]: 2480 ng·h/mL
- concentration at 24 h (100 mg, 100 mg QD (4/1), C1D1 (n = 7), read-out: C(trough, 24 h), mean (% CV)): 86.8 ng/mL
- Cmax [14]: 270 ng/mL
- Tmax [14]: 2.6 h
- half-life [14]: 12.5 h
- AUC(0-t) [15]: 6050 ng·h/mL
- concentration at 24 h (100 mg, 100 mg QD (4/1), C1D28 (n = 6), read-out: C(trough, 24 h), mean (% CV)): 111 ng/mL
- Cmax [15]: 413 ng/mL
- Tmax [15]: 2.7 h
- half-life [15]: 22 h
- AUC(0-t) [16]: 2800 ng·h/mL
- concentration at 24 h (100 mg, 100 mg QD (4/1), C2D28 (n = 4), read-out: C(trough, 24 h), mean (% CV)): 156 ng/mL
- Cmax [16]: 181 ng/mL
- Tmax [16]: 13.5 h
- half-life [16]: 23 h
- AUC(0-t) [17]: 1800 ng·h/mL
- concentration at 24 h (100 mg, 100 mg QD (continuous), C1D1 (n = 6), read-out: C(trough, 24 h), mean (% CV)): 34.1 ng/mL
- Cmax [17]: 171 ng/mL
- Tmax [17]: 4.3 h
- half-life [17]: 12.9 h
- AUC(0-t) [18]: 2990 ng·h/mL
- concentration at 24 h (100 mg, 100 mg QD (continuous), C1D28 (n = 6), read-out: C(trough, 24 h), mean (% CV)): 63 ng/mL
- Cmax [18]: 255 ng/mL
- Tmax [18]: 3.3 h
- half-life [18]: 11.4 h
- AUC(0-t) [19]: 3230 ng·h/mL
- concentration at 24 h (100 mg, 100 mg QD (continuous), C2D28 (n = 4), read-out: C(trough, 24 h), mean (% CV)): 62.8 ng/mL
- Cmax [19]: 250 ng/mL
- Tmax [19]: 3.7 h
- half-life [19]: 13.8 h
- concentration at 0 h [20]: 284 ng/mL
- concentration at 1 h [20]: 232 ng/mL
- concentration at 2 h [20]: 524 ng/mL
- concentration at 20 h [20]: 265 ng/mL
- concentration at 24 h (100 mg, 100 mg QD Continuous (n = 4), nominal time 24 h, read-out: Mean plasma concentration following the last dose on cycle 1 day 28): 246 ng/mL
